From patent US20260022142A1, “MACROCYCLIC IMMUNOMODULATORS” (Bristol-Myers Squibb Company, priority 2022, published 2026) come the findings set out here.

Bridge positions count the residues as written; N and C are the ends. Square brackets hold non-standard residues; d marks the D form. Peptide text beside a SMILES is read from it. * marks the point of attachment. ξ: configuration not given here. Phe(4-COOH) = N[C@@H](Cc1ccc(C(=O)O)cc1)C(=O)O; Bip = N[C@@H](Cc1ccc(-c2ccccc2)cc1)C(=O)O; Phe(3-Me) = Cc1cccc(C[C@H](N)C(=O)O)c1; hArg = N=C(N)NCCCC[C@H](N)C(=O)O; Cha = N[C@@H](CC1CCCCC1)C(=O)O; Cit = NC(=O)NCCC[C@H](N)C(=O)O; Thr(3ξ) = CC(O)[C@H](N)C(=O)O; 12Ado = NCCCCCCCCCCCC(=O)O; Carboxymethyl = O=C(O)C*; Orn = NCCC[C@H](N)C(=O)O; Aun = NCCCCCCCCCCC(=O)O; Dab = NCC[C@H](N)C(=O)O; Dap = NC[C@H](N)C(=O)O; AEEA = NCCOCCOCC(=O)O

This test deals with T1, PD-1/PD-L1 interaction (PE-labeled human PD-L1-Ig binding to Jurkat cell line over-expressing human PD-1) (Homo sapiens, UniProt Q15116).
T1 construct: expressed in transfected cells; host or cells: Jurkat
T1 sequence (Q15116 25-288): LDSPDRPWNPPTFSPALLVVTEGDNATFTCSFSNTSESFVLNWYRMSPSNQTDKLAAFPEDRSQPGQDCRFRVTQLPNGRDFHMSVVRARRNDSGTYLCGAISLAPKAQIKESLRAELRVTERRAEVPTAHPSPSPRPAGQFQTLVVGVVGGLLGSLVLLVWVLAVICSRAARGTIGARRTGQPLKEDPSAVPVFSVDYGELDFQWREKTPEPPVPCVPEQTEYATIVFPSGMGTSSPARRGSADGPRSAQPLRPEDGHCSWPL
Description: Jurkat-PD-1 Cell Binding High-Content Screening Assay (CBA). The note with it: Jurkat cell line over-expressing human PD-1; PE-labeled PD-L1-Ig 20 nM final; read-out: Jurkat hPD1-PDL1 IC50. Format: cell-based. Summed up:
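First, compound is added to PD-1-expressing Jurkat cells in serum-containing DMEM and left 2 h at 37° C. Next, PE-conjugated PD-L1-Ig is introduced at 20 nM final concentration for 1 hour. Finally, cells are fixed in 4% paraformaldehyde with Hoechst 33342, washed and imaged.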
Turning to `CC(C)C[C@H]1NC(=O)[C@H](CCCN)NC(=O)[C@H](C(C)C)NC(=O)[C@H](Cc2ccc(-c3ccccc3)cc2)NC(=O)[C@H](C(C)C)NC(=O)[C@H](Cc2c[nH]c3ccccc23)NC(=O)[C@H](CC(=O)O)NC(=O)[C@H](Cc2ccc(OCC(=O)O)cc2)NC(=O)[C@H](CCCCNC(=N)N)NC(=O)CSC[C@@H](C(=O)NCC(=O)N[C@@H](CCCN)C(=O)NCCCCCCCCCCCC(=O)O)NC(=O)[C@H](CN)NC(=O)[C@H](C(C)C)NC(=O)[C@H](CC2CCCCC2)NC(=O)[C@H](CCN)NC1=O` [Compound 3175] ({CH2CO}-[hArg]Y(Carboxymethyl)DWV[Bip]V[Orn][dL][Dab][Cha]V[Dap]CG[Orn][12Ado]-OH; thioether N-14), the 50% inhibitory concentration (IC50) stood at 17.7 nM.

For `CC(C)C[C@H]1NC(=O)[C@H](CCCN)NC(=O)[C@H](C(C)C)NC(=O)[C@H](Cc2ccc(-c3ccccc3)cc2)NC(=O)[C@H](C(C)C)NC(=O)[C@H](Cc2c[nH]c3ccccc23)NC(=O)[C@H](CC(=O)O)NC(=O)[C@H](Cc2ccc(OCC(=O)O)cc2)NC(=O)[C@H](CCCCNC(=N)N)NC(=O)CSC[C@@H](C(=O)NCC(=O)N[C@@H](CCCN)C(=O)NCCCCCCCCCCCC(=O)O)NC(=O)[C@H](CN)NC(=O)[C@H](C(C)C)NC(=O)[C@H](CC2CCCCC2)NC(=O)[C@H](CC(N)=O)NC1=O` [Compound 3176] ({CH2CO}-[hArg]Y(Carboxymethyl)DWV[Bip]V[Orn][dL]N[Cha]V[Dap]CG[Orn][12Ado]-OH; thioether N-14), the half-inhibitory concentration (IC50) was found to be 33.4 nM. The figure for `CC(C)C[C@H]1NC(=O)[C@H](CCCN)NC(=O)[C@H](C(C)C)NC(=O)[C@H](Cc2ccc(-c3ccccc3)cc2)NC(=O)[C@H](C(C)C)NC(=O)[C@H](Cc2c[nH]c3ccccc23)NC(=O)[C@H](CC(=O)O)NC(=O)[C@H](Cc2ccc(OCC(=O)O)cc2)NC(=O)[C@H](CCCCNC(=N)N)NC(=O)CSC[C@@H](C(=O)N[C@@H](CCN)C(=O)NCCOCCOCC(=O)N[C@@H](CCCN)C(=O)NCCCCCCCCCCCC(=O)O)NC(=O)[C@H](CO)NC(=O)[C@H](C(C)C)NC(=O)[C@H](CC2CCCCC2)NC(=O)[C@H](CC(N)=O)NC1=O` [Compound 3177] ({CH2CO}-[hArg]Y(Carboxymethyl)DWV[Bip]V[Orn][dL]N[Cha]VSC[Dab][AEEA][Orn][12Ado]-OH; thioether N-14) is 27.3 nM. To `CC(C)C[C@H]1NC(=O)[C@H](CCCN)NC(=O)[C@H](C(C)C)NC(=O)[C@H](Cc2ccc(-c3ccccc3)cc2)NC(=O)[C@H](C(C)C)NC(=O)[C@H](Cc2c[nH]c3ccccc23)NC(=O)[C@H](CC(=O)O)NC(=O)[C@H](Cc2ccc(OCC(=O)O)cc2)NC(=O)[C@H](CCCCNC(=N)N)NC(=O)CSC[C@@H](C(=O)N[C@@H](CCCN)C(=O)NCCOCCOCC(=O)N[C@@H](CCCN)C(=O)NCCCCCCCCCCC(=O)O)NC(=O)[C@H](CO)NC(=O)[C@H](C(C)C)NC(=O)[C@H](CC2CCCCC2)NC(=O)[C@H](CC(N)=O)NC1=O` [Compound 3178] ({CH2CO}-[hArg]Y(Carboxymethyl)DWV[Bip]V[Orn][dL]N[Cha]VSC[Orn][AEEA][Orn][Aun]-OH; thioether N-14) belongs 14.8 nM; to `CC(C)C[C@H]1NC(=O)[C@H](CCCN)NC(=O)[C@H](C(C)C)NC(=O)[C@H](Cc2ccc(-c3ccccc3)cc2)NC(=O)[C@H](C(C)C)NC(=O)[C@H](Cc2c[nH]c3ccccc23)NC(=O)[C@H](CC(=O)O)NC(=O)[C@H](Cc2ccc(OCC(=O)O)cc2)NC(=O)[C@H](Cc2ccc(OCC(=O)O)cc2)NC(=O)CSC[C@@H](C(=O)NCC(=O)NCCOCCOCC(=O)N[C@@H](CCCN)C(=O)NCCCCCCCCCCCC(=O)O)NC(=O)[C@H](CO)NC(=O)[C@H](C(C)C)NC(=O)[C@H](CC2CCCCC2)NC(=O)[C@H](CCN)NC1=O` [Compound 3179] ({CH2CO}-Y(Carboxymethyl)Y(Carboxymethyl)DWV[Bip]V[Orn][dL][Dab][Cha]VSCG[AEEA][Orn][12Ado]-OH; thioether N-14), 16.1 nM. The figure for `CC(C)C[C@H]1NC(=O)[C@H](CCCN)NC(=O)[C@H](C(C)C)NC(=O)[C@H](Cc2ccc(-c3ccccc3)cc2)NC(=O)[C@H](C(C)C)NC(=O)[C@H](Cc2c[nH]c3ccccc23)NC(=O)[C@H](CC(=O)O)NC(=O)[C@H](Cc2ccc(C(=O)O)cc2)NC(=O)[C@H](Cc2ccc(OCC(=O)O)cc2)NC(=O)CSC[C@@H](C(=O)NCC(=O)NCCOCCOCC(=O)N[C@@H](CCCN)C(=O)NCCCCCCCCCCCC(=O)O)NC(=O)[C@H](CO)NC(=O)[C@H](C(C)C)NC(=O)[C@H](CC2CCCCC2)NC(=O)[C@H](CCN)NC1=O` [Compound 3180] ({CH2CO}-Y(Carboxymethyl)[Phe(4-COOH)]DWV[Bip]V[Orn][dL][Dab][Cha]VSCG[AEEA][Orn][12Ado]-OH; thioether N-14) is 16.8 nM. Consider `CC(C)C[C@H]1NC(=O)[C@H](CCCN)NC(=O)[C@H](C(C)C)NC(=O)[C@H](Cc2ccc(-c3ccccc3)cc2)NC(=O)[C@H](C(C)C)NC(=O)[C@H](Cc2c[nH]c3ccccc23)NC(=O)[C@H](CC(=O)O)NC(=O)[C@H](Cc2ccc(OCC(=O)O)cc2)NC(=O)[C@H](CCCNC(=N)N)NC(=O)CSC[C@@H](C(=O)NCC(=O)NCCOCCOCC(=O)N[C@@H](CCCN)C(=O)NCCCCCCCCCCCC(=O)O)NC(=O)[C@H](CO)NC(=O)[C@H](C(C)C)NC(=O)[C@H](CC2CCCCC2)NC(=O)[C@H](CCN)NC1=O` [Compound 3181] ({CH2CO}-RY(Carboxymethyl)DWV[Bip]V[Orn][dL][Dab][Cha]VSCG[AEEA][Orn][12Ado]-OH; thioether N-14), for which the IC50 turned out to be 7.6 nM. The figure for `Cc1cccc(C[C@@H]2NC(=O)[C@H](CC(=O)O)NC(=O)[C@H](Cc3ccc(OCC(=O)O)cc3)NC(=O)[C@H](CCCCNC(=N)N)NC(=O)CSC[C@@H](C(=O)NCC(=O)N[C@@H](CCC(=O)O)C(=O)NCCCCCCCCCCCC(=O)O)NC(=O)[C@H](CO)NC(=O)[C@H](C(C)C)NC(=O)[C@H](CC3CCCCC3)NC(=O)[C@H](C(C)O)NC(=O)[C@@H](CC(C)C)NC(=O)[C@H](CCCN)NC(=O)[C@H](CCCNC(N)=O)NC(=O)[C@H](Cc3ccc(-c4ccccc4)cc3)NC(=O)[C@H](C(C)C)NC2=O)c1` (stereo partly drawn) [Compound 3182] ({CH2CO}-[hArg]Y(Carboxymethyl)D[Phe(3-Me)]V[Bip][Cit][Orn][dL][Thr(3ξ)][Cha]VSCGE[12Ado]-OH; thioether N-14) is 45.9 nM. To `Cc1cccc(C[C@@H]2NC(=O)[C@H](CC(=O)O)NC(=O)[C@H](Cc3ccc(OCC(=O)O)cc3)NC(=O)[C@H](CCCCNC(=N)N)NC(=O)CSC[C@@H](C(=O)NCC(=O)N[C@@H](CCC(=O)O)C(=O)NCCCCCCCCCCCC(=O)O)NC(=O)[C@H](CO)NC(=O)[C@H](C(C)C)NC(=O)[C@H](CC3CCCCC3)NC(=O)[C@H](CCN)NC(=O)[C@@H](CC(C)C)NC(=O)[C@H](CCCN)NC(=O)[C@H](CCCNC(N)=O)NC(=O)[C@H](Cc3ccc(-c4ccccc4)cc3)NC(=O)[C@H](C(C)C)NC2=O)c1` [Compound 3183] ({CH2CO}-[hArg]Y(Carboxymethyl)D[Phe(3-Me)]V[Bip][Cit][Orn][dL][Dab][Cha]VSCGE[12Ado]-OH; thioether N-14) belongs 821 nM. The figure for `Cc1cccc(C[C@@H]2NC(=O)[C@H](CC(=O)O)NC(=O)[C@H](Cc3ccc(OCC(=O)O)cc3)NC(=O)[C@H](CCCCNC(=N)N)NC(=O)CSC[C@@H](C(=O)NCC(=O)NCCOCCOCC(=O)N[C@@H](CCC(=O)O)C(=O)NCCCCCCCCCCCC(=O)O)NC(=O)[C@H](CO)NC(=O)[C@H](C(C)C)NC(=O)[C@H](CC3CCCCC3)NC(=O)[C@H](CCN)NC(=O)[C@@H](CC(C)C)NC(=O)[C@H](CCCN)NC(=O)[C@H](C(C)C)NC(=O)[C@H](Cc3ccc(-c4ccccc4)cc3)NC(=O)[C@H](C(C)C)NC2=O)c1` [Compound 3184] ({CH2CO}-[hArg]Y(Carboxymethyl)D[Phe(3-Me)]V[Bip]V[Orn][dL][Dab][Cha]VSCG[AEEA]E[12Ado]-OH; thioether N-14) is 10.1 nM; for `Cc1cccc(C[C@@H]2NC(=O)[C@H](CC(=O)O)NC(=O)[C@H](Cc3ccc(OCC(=O)O)cc3)NC(=O)[C@H](CCCCNC(=N)N)NC(=O)CSC[C@@H](C(=O)NCC(=O)NCCOCCOCC(=O)N[C@@H](CCC(=O)O)C(=O)NCCCCCCCCCCCC(=O)O)NC(=O)[C@H](CO)NC(=O)[C@H](C(C)C)NC(=O)[C@H](CC3CCCCC3)NC(=O)[C@H](CCN)NC(=O)[C@@H](CC(C)C)NC(=O)[C@H](CCCN)NC(=O)[C@H](CCCNC(N)=O)NC(=O)[C@H](Cc3ccc(-c4ccccc4)cc3)NC(=O)[C@H](C(C)C)NC2=O)c1` [Compound 3185] ({CH2CO}-[hArg]Y(Carboxymethyl)D[Phe(3-Me)]V[Bip][Cit][Orn][dL][Dab][Cha]VSCG[AEEA]E[12Ado]-OH; thioether N-14) it is 17.6 nM. As to `Cc1cccc(C[C@@H]2NC(=O)[C@H](CC(=O)O)NC(=O)[C@H](Cc3ccc(OCC(=O)O)cc3)NC(=O)[C@H](CCCCNC(=N)N)NC(=O)CSC[C@@H](C(=O)N[C@@H](CCCN)C(=O)N[C@@H](CO)C(=O)NCCCCCCCCCCCC(=O)O)NC(=O)[C@H](C(C)O)NC(=O)[C@H](C(C)C)NC(=O)[C@H](CC3CCCCC3)NC(=O)[C@H](CCN)NC(=O)[C@@H](CC(C)C)NC(=O)[C@H](CCCN)NC(=O)[C@H](CCCNC(N)=O)NC(=O)[C@H](Cc3ccc(-c4ccccc4)cc3)NC(=O)[C@H](C(C)C)NC2=O)c1` (stereo partly drawn) [Compound 3187] ({CH2CO}-[hArg]Y(Carboxymethyl)D[Phe(3-Me)]V[Bip][Cit][Orn][dL][Dab][Cha]V[Thr(3ξ)]C[Orn]S[12Ado]-OH; thioether N-14), the 50% inhibitory concentration (IC50) amounted to 9.7 nM. In the case of `Cc1cccc(C[C@@H]2NC(=O)[C@H](CC(=O)O)NC(=O)[C@H](Cc3ccc(OCC(=O)O)cc3)NC(=O)[C@H](CCCCNC(=N)N)NC(=O)CSC[C@@H](C(=O)N[C@@H](CN)C(=O)N[C@@H](CCC(=O)O)C(=O)NCCCCCCCCCCCC(=O)O)NC(=O)[C@H](C(C)O)NC(=O)[C@H](C(C)C)NC(=O)[C@H](CC3CCCCC3)NC(=O)[C@H](CCN)NC(=O)[C@@H](CC(C)C)NC(=O)[C@H](CCCN)NC(=O)[C@H](CCCNC(N)=O)NC(=O)[C@H](Cc3ccc(-c4ccccc4)cc3)NC(=O)[C@H](C(C)C)NC2=O)c1` (stereo partly drawn) [Compound 3188] ({CH2CO}-[hArg]Y(Carboxymethyl)D[Phe(3-Me)]V[Bip][Cit][Orn][dL][Dab][Cha]V[Thr(3ξ)]C[Dap]E[12Ado]-OH; thioether N-14), the half-maximal inhibitory concentration (IC50) turned out to be 302 nM.

As a reminder, the IC50 is the concentration at which inhibition is half-maximal.
